Source: patent US9833497B2, “Human originated EGF domain proteins and use of the same” (CHENGDU SOURCEBIO LIMITED-LIABILITY COMPANY, priority 2013, dated 2017)

Experiments:
Format in all cases: cell-based
[1] = system: Citrobacter diversus; experiment: MIC against Gram-negative bacteria: Citrobacter diversus
In short: (§1)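 Antibacterial activity of purified human EGF domain proteins: two-fold concentration series, triplicate wells, LB broth, 5×10^5 CFU/mL bacteria, 37° C shaking incubation. The lowest concentration without growth defines the MIC.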

[2] = system: Proteus mirabilis; experiment: MIC against Gram-negative bacteria: Proteus mirabilis
In short: as §1

[3] = system: Proteus vulgaris; experiment: MIC against Gram-negative bacteria: Proteus vulgaris
In short: as §1

[4] = system: Moraxella catarrhalis; experiment: MIC against Gram-negative bacteria: Moraxella catarrhalis
In short: as §1

[5] = system: E. coli BL21; experiment: MIC against Gram-negative bacteria: E. coli BL21
In short: as §1

[6] = system: E. coli DH5α; experiment: Antibacterial activity: MIC and growth curve against E. coli DH5α in 96-well plate; conditions: minimal inhibitory concentration against E. coli DH5α; 96-well plate, 5×10^5 CFU/mL, 37° C., judged after 8 h
In short: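 MIC taken as lowest protein level with no bacterial growth, tracked by A600 every 30 min during 37 °C, 175 rpm culture. Two-fold protein series 50-12.5 μg/mL final, triplicate wells, against 5×10^5 CFU/mL of LB-washed mid-log cells.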

[7] = system: Pseudomonas aeruginosa; experiment: MIC against Gram-negative bacteria: Pseudomonas aeruginosa
In short: as §1

[8] = system: Klebsiella pneumonia; experiment: MIC against Gram-negative bacteria: Klebsiella pneumonia
In short: as §1

[9] = system: Serratia marcescens; experiment: MIC against Gram-negative bacteria: Serratia marcescens
In short: as §1

[10] = system: Aeromonas hydrophila; experiment: MIC against Gram-negative bacteria: Aeromonas hydrophila
In short: as §1

[11] = system: Enterobacter cloacae; experiment: MIC against Gram-negative bacteria: Enterobacter cloacae
In short: as §1

[12] = C. diversus, 10 h cultivation at 37° C., 5×10^5 CFU/mL
[13] = P. mirabilis, 10 h cultivation at 37° C., 5×10^5 CFU/mL
[14] = P. vulgaris, 10 h cultivation at 37° C., 5×10^5 CFU/mL
[15] = M. catarrhalis, 10 h cultivation at 37° C., 5×10^5 CFU/mL
[16] = E. coli BL21, 10 h cultivation at 37° C., 5×10^5 CFU/mL
[17] = P. aeruginosa, 10 h cultivation at 37° C., 5×10^5 CFU/mL
[18] = K. pneumonia, 10 h cultivation at 37° C., 5×10^5 CFU/mL
[19] = S. marcescens, 10 h cultivation at 37° C., 5×10^5 CFU/mL
[20] = A. hydrophila, 10 h cultivation at 37° C., 5×10^5 CFU/mL
[21] = E. cloacae, 10 h cultivation at 37° C., 5×10^5 CFU/mL
[22] = 96-well plate, 5×10^5 CFU/mL, 37° C., 10 h

Substance: PRT753 (RKDVCKSTHHGCEHICVNNGNSYICKCSEGFVLAEDGRRCK; listed as Homo sapiens)
- MIC (μg/mL) C. diversus [1, 12]: 12.5 µg/mL
- MIC (μg/mL) P. mirabilis [2, 13]: 12.5 µg/mL
- MIC (μg/mL) P. vulgaris [3, 14]: 25 µg/mL
- MIC (μg/mL) M. catarrhalis [4, 15]: 50 µg/mL
- MIC (μg/mL) E. coli BL21 [5, 16]: 50 µg/mL
- MIC [6]: 25 µg/mL
- MIC (μg/mL) P. aeruginosa [7, 17]: 12.5 µg/mL
- MIC (μg/mL) K. pneumonia [8, 18]: 50 µg/mL
- MIC (μg/mL) S. marcescens [9, 19]: 50 µg/mL
- MIC (μg/mL) A. hydrophila [10, 20]: 50 µg/mL
- MIC (μg/mL) E. cloacae [11, 21]: 12.5 µg/mL

Substance: PRT535 (CQCDIGGALSSMCSGPSGVCQCREHVVGKVCQRPENNYYFPDLHH; listed as Homo sapiens)
- MIC against C. diversus [1, 22]: 50 µg/mL
- MIC against P. mirabilis [2, 22]: 50 µg/mL
- MIC against P. vulgaris [3, 22]: 12.5 µg/mL
- MIC against M. catarrhalis [4, 22]: 12.5 µg/mL
- MIC against E. coli BL21 [5, 22]: 25 µg/mL
- MIC [6]: 12.5 µg/mL
- MIC against P. aeruginosa [7, 22]: 50 µg/mL
- MIC against K. pneumonia [8, 22]: 12.5 µg/mL
- MIC against S. marcescens [9, 22]: 50 µg/mL
- MIC against A. hydrophila [10, 22]: 12.5 µg/mL
- MIC against E. cloacae [11, 22]: 50 µg/mL

Substance: PRT245 (DIDECASGKVICPYNRRCVNTFGSYYCKCHIGFELQYIS; listed as Homo sapiens)
- MIC (μg/mL) C. diversus [1, 12]: 25 µg/mL
- MIC (μg/mL) P. mirabilis [2, 13]: 25 µg/mL
- MIC (μg/mL) P. vulgaris [3, 14]: 12.5 µg/mL
- MIC (μg/mL) M. catarrhalis [4, 15]: 12.5 µg/mL
- MIC (μg/mL) E. coli BL21 [5, 16]: 50 µg/mL
- MIC [6]: 12.5 µg/mL
- MIC (μg/mL) P. aeruginosa [7, 17]: 12.5 µg/mL
- MIC (μg/mL) K. pneumonia [8, 18]: 12.5 µg/mL
- MIC (μg/mL) S. marcescens [9, 19]: 25 µg/mL
- MIC (μg/mL) A. hydrophila [10, 20]: 12.5 µg/mL
- MIC (μg/mL) E. cloacae [11, 21]: 12.5 µg/mL

Substance: PRT683 (DIDECSQDPSLCLPHGACKNLQGSYVCVCDEGFTPTQDQHGCE; listed as Homo sapiens)
- MIC C. diversus [1, 22]: 25 µg/mL
- MIC P. mirabilis [2, 22]: 12.5 µg/mL
- MIC P. vulgaris [3, 22]: 50 µg/mL
- MIC M. catarrhalis [4, 22]: 25 µg/mL
- MIC E. coli BL21 [5, 22]: 25 µg/mL
- MIC [6]: 12.5 µg/mL
- MIC P. aeruginosa [7, 22]: 50 µg/mL
- MIC K. pneumonia [8, 22]: 25 µg/mL
- MIC S. marcescens [9, 22]: 25 µg/mL
- MIC A. hydrophila [10, 22]: 50 µg/mL
- MIC E. cloacae [11, 22]: 12.5 µg/mL

Substance: PRT990 (LDDACVSNPCHEDAICDTNPVNGRAICTCPPGFTGGACD; listed as Homo sapiens)
- MIC ([1]; C. diversus, 10 h cultivation at 37° C.): 25 µg/mL
- MIC ([2]; P. mirabilis, 10 h cultivation at 37° C.): 25 µg/mL
- MIC ([3]; P. vulgaris, 10 h cultivation at 37° C.): 12.5 µg/mL
- MIC ([4]; M. catarrhalis, 10 h cultivation at 37° C.): 50 µg/mL
- MIC ([5]; E. coli BL21, 10 h cultivation at 37° C.): 25 µg/mL
- MIC [6]: 12.5 µg/mL
- MIC ([7]; P. aeruginosa, 10 h cultivation at 37° C.): 12.5 µg/mL
- MIC ([8]; K. pneumonia, 10 h cultivation at 37° C.): 12.5 µg/mL
- MIC ([9]; S. marcescens, 10 h cultivation at 37° C.): 25 µg/mL
- MIC ([10]; A. hydrophila, 10 h cultivation at 37° C.): 12.5 µg/mL
- MIC ([11]; E. cloacae, 10 h cultivation at 37° C.): 50 µg/mL

Substance: PRT451 (SFYCSCRPGYKLMSDKRTCVDIDE; listed as Homo sapiens)
- MIC against C. diversus [1, 22]: 12.5 µg/mL
- MIC against P. mirabilis [2, 22]: 12.5 µg/mL
- MIC against P. vulgaris [3, 22]: 50 µg/mL
- MIC against M. catarrhalis [4, 22]: 50 µg/mL
- MIC against E. coli BL21 [5, 22]: 50 µg/mL
- MIC [6]: 25 µg/mL
- MIC against P. aeruginosa [7, 22]: 25 µg/mL
- MIC against K. pneumonia [8, 22]: 12.5 µg/mL
- MIC against S. marcescens [9, 22]: 12.5 µg/mL
- MIC against A. hydrophila [10, 22]: 50 µg/mL
- MIC against E. cloacae [11, 22]: 25 µg/mL

Substance: PRT1308 (TSPQCPRKCDPNANCVQDSAGASTCACAAGYSGNGIFCS; listed as Homo sapiens)
- MIC against C. diversus ([1]; Citrobacter diversus, 96-well plate, 5×10^5 CFU/mL, 37° C., 10 h): 25 µg/mL
- MIC against P. mirabilis ([2]; Proteus mirabilis, 96-well plate, 5×10^5 CFU/mL, 37° C., 10 h): 25 µg/mL
- MIC against P. vulgaris ([3]; Proteus vulgaris, 96-well plate, 5×10^5 CFU/mL, 37° C., 10 h): 12.5 µg/mL
- MIC against M. catarrhalis ([4]; Moraxella catarrhalis, 96-well plate, 5×10^5 CFU/mL, 37° C., 10 h): 50 µg/mL
- MIC against E. coli BL21 ([5]; E. coli BL21, 96-well plate, 5×10^5 CFU/mL, 37° C., 10 h): 12.5 µg/mL
- MIC [6]: 50 µg/mL
- MIC against P. aeruginosa ([7]; Pseudomonas aeruginosa, 96-well plate, 5×10^5 CFU/mL, 37° C., 10 h): 50 µg/mL
- MIC against K. pneumonia ([8]; Klebsiella pneumonia, 96-well plate, 5×10^5 CFU/mL, 37° C., 10 h): 12.5 µg/mL
- MIC against S. marcescens ([9]; Serratia marcescens, 96-well plate, 5×10^5 CFU/mL, 37° C., 10 h): 50 µg/mL
- MIC against A. hydrophila ([10]; Aeromonas hydrophila, 96-well plate, 5×10^5 CFU/mL, 37° C., 10 h): 12.5 µg/mL
- MIC against E. cloacae ([11]; Enterobacter cloacae, 96-well plate, 5×10^5 CFU/mL, 37° C., 10 h): 50 µg/mL
